Assay results published in patent EP4810483A1, “6- AND 5-HETEROARYL DERIVATIVES AND USE THEREOF” (CMS Research & Development Pte. Ltd., priority 2023, dated 2025).
Where two headings read alike, the source gives them in different places.

Columns and labels:
[1] = Pharmacokinetic evaluation in mice (IV and PO); format: in vivo; conditions: mouse, plasma, CD-1 mice; for half-life: IV, read-out: Half-life T1/2 (IV) (converted); for AUC(0-t): PO, read-out: Area under the concentration-time curve AUC0-last PO; for bioavailability: read-out: Bioavailability F; for clearance: read-out: Clearance CL; for Cmax: read-out: Peak plasma concentration Cmax; for Vd: read-out: Volume of distribution Vdss
Protocol: Test Method 2: Pharmacokinetic Evaluation in Mice
Assay method: Test compounds were mixed with 5% DMSO / 60% polyethylene glycol (PEG400) / 35% water, vortexed and sonicated to obtain a clear 0.2 mg/mL solution, which was then filtered through a microporous membrane before use. Male CD-1 mice weighing 25-35 g were selected. The candidate compound solution was administered intravenously at a dose of 1 mg/kg. The candidate compound solution was orally administered at a dose of 5 mg/kg after fasting. Blood samples (25 µL each) were collected at 0.083, 0.25, 0.5, 1, 2, 4, 8, 12 and 24 hours after administration, and placed into commercial anticoagulant tubes pre-containing EDTA-K2. The tubes were centrifuged for 10 minutes to separate plasma, which was then stored at -60°C. The content of the target compound in plasma samples was determined by LC/MS/MS method, and pharmacokinetic parameters were calculated using Phoenix WinNonlin software (Pharsight, USA).
Tlast: time of the last detection point. AUC0-last: (Area Under the Concentration-Time Curve) refers to the area enclosed by the plasma drug concentration curve and the time axis. F (Bioavailability) is a measure of the rate and extent to which a drug is absorbed into the systemic circulation, serving as a critical indicator for evaluating the degree of drug absorption. […]

[2] = system: maximal electroshock-induced epilepsy model; assay: Maximal electroshock-induced epilepsy model, behavioral pharmacodynamics; format: in vivo; conditions: dose 5 mg/kg, oral, one hour before electrical stimulation; male CD-1 mice
Description: Assay Example 2: Evaluation of the behavioral pharmacodynamics of the test compounds in a maximal electroshock-induced epilepsy model
This study used behavioral tests in male CD-1 mice to investigate the effects of test compounds on acute epileptic seizures behavior induced by maximal electroshock.
Male CD-1 mice (25 to 35g) were used as the experimental animals and fed with standard feed (Beijing Vital River Laboratory Animal Technology Co., Ltd.).
After arriving at the animal facility, the experimental animals needed to acclimatize for at least one week. The mice were observed daily for vital signs, and randomly divided into groups according to their body weights one day before the drug administration. One hour before the electrical stimulation, different dosages of the test compound were orally administered to each group. On the day of the assay, the male CD-1 mice in each group were anesthetized locally at the cornea with 2% lidocaine. Then, silver bipolar electrodes were used to electrically stimulate the cornea of the mice with 18 mA, 60 Hz, a pulse width of 0.6 ms, and a stimulation time of 1 s to induce seizures. Subsequently, the latency of seizures and the duration of limb rigidity in mice after the electrical stimulation were observed, and the protection rate from seizures for each group was statistically analyzed.

[3] = molecular target: T1, hKCNQ2/3 (Homo sapiens, UniProt O43525+O43526); assay: cell-based
T1 construct: expressed in transfected cells; host or cells: CHO
T1 sequence (O43526 whole entry): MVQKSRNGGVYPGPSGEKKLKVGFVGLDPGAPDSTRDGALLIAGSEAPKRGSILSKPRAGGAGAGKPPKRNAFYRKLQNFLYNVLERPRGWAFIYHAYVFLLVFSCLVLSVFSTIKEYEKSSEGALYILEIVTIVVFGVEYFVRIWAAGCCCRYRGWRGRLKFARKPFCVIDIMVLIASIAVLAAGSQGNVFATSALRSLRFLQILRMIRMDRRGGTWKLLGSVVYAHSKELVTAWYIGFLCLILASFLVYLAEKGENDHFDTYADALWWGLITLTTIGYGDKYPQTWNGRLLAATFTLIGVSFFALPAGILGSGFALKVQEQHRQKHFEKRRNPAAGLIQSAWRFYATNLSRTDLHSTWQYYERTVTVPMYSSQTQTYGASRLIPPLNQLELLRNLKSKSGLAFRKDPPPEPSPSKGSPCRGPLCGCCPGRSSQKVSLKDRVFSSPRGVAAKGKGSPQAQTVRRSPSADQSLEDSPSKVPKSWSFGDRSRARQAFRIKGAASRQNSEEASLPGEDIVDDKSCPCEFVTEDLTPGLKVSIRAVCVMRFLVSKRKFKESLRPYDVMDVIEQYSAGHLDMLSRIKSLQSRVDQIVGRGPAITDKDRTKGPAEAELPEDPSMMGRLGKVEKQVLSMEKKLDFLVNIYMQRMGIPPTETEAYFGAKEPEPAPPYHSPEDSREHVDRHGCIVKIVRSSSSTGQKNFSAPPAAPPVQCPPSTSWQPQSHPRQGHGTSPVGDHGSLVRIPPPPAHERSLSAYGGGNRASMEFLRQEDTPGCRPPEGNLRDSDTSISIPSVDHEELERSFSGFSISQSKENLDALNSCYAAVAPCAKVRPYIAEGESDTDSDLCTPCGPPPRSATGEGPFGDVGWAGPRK
T1 sequence (O43525 whole entry): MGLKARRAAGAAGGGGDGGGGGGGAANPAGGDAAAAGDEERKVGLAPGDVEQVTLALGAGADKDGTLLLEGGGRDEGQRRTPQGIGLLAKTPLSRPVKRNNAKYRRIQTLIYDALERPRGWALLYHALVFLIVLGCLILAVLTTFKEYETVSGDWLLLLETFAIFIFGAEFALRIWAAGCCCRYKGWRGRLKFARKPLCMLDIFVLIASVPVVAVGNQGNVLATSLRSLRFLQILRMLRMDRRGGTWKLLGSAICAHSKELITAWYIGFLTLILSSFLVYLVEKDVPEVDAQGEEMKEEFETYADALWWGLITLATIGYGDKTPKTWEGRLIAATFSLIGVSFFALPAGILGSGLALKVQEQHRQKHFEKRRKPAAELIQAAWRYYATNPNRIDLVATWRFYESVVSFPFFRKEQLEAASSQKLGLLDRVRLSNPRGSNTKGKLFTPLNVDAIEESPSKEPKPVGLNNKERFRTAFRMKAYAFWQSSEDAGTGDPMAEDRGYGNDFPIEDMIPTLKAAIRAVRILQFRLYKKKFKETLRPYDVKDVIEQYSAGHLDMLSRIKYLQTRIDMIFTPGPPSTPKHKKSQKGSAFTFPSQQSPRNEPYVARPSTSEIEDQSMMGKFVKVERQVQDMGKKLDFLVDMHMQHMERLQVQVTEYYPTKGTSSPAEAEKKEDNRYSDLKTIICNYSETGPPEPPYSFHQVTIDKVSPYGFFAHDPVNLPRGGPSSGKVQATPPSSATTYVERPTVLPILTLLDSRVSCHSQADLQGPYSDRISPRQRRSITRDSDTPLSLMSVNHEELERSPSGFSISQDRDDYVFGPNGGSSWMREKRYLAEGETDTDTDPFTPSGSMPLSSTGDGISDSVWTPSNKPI
Description: Test Method 1: hKCNQ2/3 Thallium Flux Assay
Test Objective: To test the in vitro concentration-response relationship of compounds using FLIPR thallium flux assay in CHO cell lines stably expressing hKCNQ2/3.
According to the split ratio, the cells were transferred to another T-75 flask containing complete cell growth medium. Note: To maintain logarithmic growth, the cells should be kept in a subconfluent monolayer state. Based on the cell doubling time, the cells were passaged every 2-3 days.
• (1) Day 1 - Cell preparation: Cells were digested as described above, and cell density and viability were determined using a Cell Countess. The volume of the single-cell suspension was adjusted with complete cell growth medium. Then, hKCNQ2/3_CHO cells were seeded onto PDL-precoated 384-well plates at a density of approximately 20,000 cells/well (30 µL/well). The plates were then incubated overnight in a 37°C, 5% CO2 humidified air incubator. • (2) Day 2 - Compound preparation: Test compounds were diluted with dimethyl sulfoxide (DMSO) to stock concentrations and stored in a -20°C freezer. A compound addition program was set up on the ECHO liquid handler, and compounds were added to the plates using the ECHO liquid handler. Retigabine (RTG) was used as a positive control at a highest concentration of 100 µM with 3-fold serial dilutions for a total of 9 doses. Buffer containing 5 mM K^+ and 1 mM Tl^+ was added to the plates. Notes: 1) K2SO4 and Tl2SO4 were prepared in 1× chloride-free buffer. Depending on the voltage-gated potassium channel involved, the concentrations of Tl^+ and K^+ should be adjusted. Tl^+ concentration is approximately 0.5-5 mM, and K^+ concentration is approximately 5-30 mM. 2) Each 1 mM solution of K2SO4 and Tl2SO4 contains 2 mM K^+ and Tl^+; the final concentration should be calculated based on the ion concentration. 3) TlCl readily precipitates and a chloride-free buffer is required. • (3) Day 2 -Assay testing: Once the cells reached the desired confluence, the cell assay plates were removed from the incubator. Assay buffer and diluted Tl^+ dye (Molecular Devices # R8222) were prepared. The medium was discarded using a Bravo liquid handler, and 25 µL of Tl^+ dye was added to each well. After 1 hour of incubation, the cell assay plates, composite plates and FLIPR tips were placed in the FLIPR^TETRA (Molecular Devices, USA) for FLIPR detection. After setting up the tips, baseline readings were taken for 60 seconds, then 12.5 µL was added from the composite plate (3×) to the cell assay plate, and data were recorded for at least 5 minutes. • (4) Data processing: Maximum signals were generated by the FLIPR software. […] Data quality control: S/B > 2.00, Z factor > 0.50.
• (1) Day 1 - Cell preparation: Cells were digested as described above, and cell density and viability were determined using a Cell Countess. The volume of the single-cell suspension was adjusted with complete cell growth medium. Then, hKCNQ2/3_CHO cells were seeded onto PDL-precoated 384-well plates at a density of approximately 20,000 cells/well (30 µL/well). The plates were then incubated overnight in a 37°C, 5% CO2 humidified air incubator. • (2) Day 2 - Compound preparation: Test compounds were diluted with dimethyl sulfoxide (DMSO) to stock concentrations and stored in a -20°C freezer. A compound addition program was set up on the ECHO liquid handler, and compounds were added to the plates using the ECHO liquid handler. Retigabine (RTG) was used as a positive control at a highest concentration of 100 µM with 3-fold serial dilutions for a total of 9 doses. Buffer containing 5 mM K^+ and 1 mM Tl^+ was added to the plates. Notes: 1) K2SO4 and Tl2SO4 were prepared in 1× chloride-free buffer. Depending on the voltage-gated potassium channel involved, the concentrations of Tl^+ and K^+ should be adjusted. Tl^+ concentration is approximately 0.5 mM -5 mM, and K^+ concentration is approximately 5 mM -30 mM.

[4] = molecular target: CYP2C19 (Homo sapiens, UniProt P33261); assay: Drug-drug interaction evaluation: CYP inhibition in human liver microsomes (cocktail method)
Sequence of CYP2C19 (P33261 whole entry): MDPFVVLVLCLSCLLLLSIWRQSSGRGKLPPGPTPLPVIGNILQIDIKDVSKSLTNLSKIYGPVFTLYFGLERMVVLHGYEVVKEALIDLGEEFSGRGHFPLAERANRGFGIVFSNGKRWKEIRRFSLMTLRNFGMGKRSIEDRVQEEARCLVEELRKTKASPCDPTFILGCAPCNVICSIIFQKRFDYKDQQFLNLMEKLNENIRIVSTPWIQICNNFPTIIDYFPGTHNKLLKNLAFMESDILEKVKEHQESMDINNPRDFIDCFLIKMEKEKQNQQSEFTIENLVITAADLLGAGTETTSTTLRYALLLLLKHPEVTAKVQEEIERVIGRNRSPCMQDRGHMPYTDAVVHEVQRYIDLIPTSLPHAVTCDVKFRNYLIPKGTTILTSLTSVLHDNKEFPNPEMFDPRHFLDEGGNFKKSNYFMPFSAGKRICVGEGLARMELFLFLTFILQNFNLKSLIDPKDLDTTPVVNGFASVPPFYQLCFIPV
Protocol: (§1) The cocktail method using specific probe substrates for CYP1A2, CYP2C9, CYP2C19, CYP2D6 and CYP3A was used to evaluate the inhibitory effect of the compounds on the activity of human liver microsomal cytochrome P450 isoenzymes (CYP1A2, CYP2C9, CYP2C19, CYP2D6 and CYP3A).
(§2) Human liver microsomes, probe substrates, positive control inhibitors, and reduced nicotinamide adenine dinucleotide phosphate (NADPH).
(§3) To the corresponding wells of a reaction plate, 20 µL of substrate solution was added; to blank wells, 20 µL of potassium phosphate buffer was added.
(§4) To the corresponding wells, 2 µL of test compound and positive control working solution were added; to inhibitor-free and blank wells, 2 µL of solvent was added.
(§5) Human liver microsome working solution was prepared, and 158 µL of human liver microsome working solution was added to each well of the reaction plate.
(§6) The plate was pre-incubated at 37.0°C for 10 minutes.
(§7) To start the reaction, 20 µL of NADPH cofactor working solution was added to the reaction plate.
(§8) After incubation in a 37.0°C water bath with mixing for 10 minutes, 400 µL of stop solution was added to terminate the reaction.
(§9) The sample plate was centrifuged at 4000 rpm for 20 minutes.
(§10) 200 µL of supernatant was taken and mixed with 100 µL of pure water as diluent, and the plate was shaken to mix well.
(§11) Analysis was performed by liquid chromatography-tandem mass spectrometry (LC-MS/MS).
(§12) Using the percentage of remaining activity as the ordinate and the test compound concentration as the abscissa, a non-linear regression analysis was performed with a three-parameter or four-parameter model using XL fit software to calculate the IC50 value.
(§13) y = (max)/(1 + (((x)/(IC50)))^−hillslope) [formula]
(§14) y = min + (max−min)/(1 + (((x)/(IC50)))^−hillslope) [formula]
(§15) max = maximum enzyme activity; min = minimum enzyme activity; x = concentration of test compound or positive control inhibitor; y = enzyme activity at the corresponding concentration; hillslope = slope; IC50 = half-maximal inhibitory concentration. The four-parameter equation was used when the minimum enzyme activity was within ±10%; otherwise the three-parameter equation was used.

[5] = molecular target: CYP2C9 (Homo sapiens, UniProt P11712); assay: as above
Sequence of CYP2C9 (P11712 whole entry): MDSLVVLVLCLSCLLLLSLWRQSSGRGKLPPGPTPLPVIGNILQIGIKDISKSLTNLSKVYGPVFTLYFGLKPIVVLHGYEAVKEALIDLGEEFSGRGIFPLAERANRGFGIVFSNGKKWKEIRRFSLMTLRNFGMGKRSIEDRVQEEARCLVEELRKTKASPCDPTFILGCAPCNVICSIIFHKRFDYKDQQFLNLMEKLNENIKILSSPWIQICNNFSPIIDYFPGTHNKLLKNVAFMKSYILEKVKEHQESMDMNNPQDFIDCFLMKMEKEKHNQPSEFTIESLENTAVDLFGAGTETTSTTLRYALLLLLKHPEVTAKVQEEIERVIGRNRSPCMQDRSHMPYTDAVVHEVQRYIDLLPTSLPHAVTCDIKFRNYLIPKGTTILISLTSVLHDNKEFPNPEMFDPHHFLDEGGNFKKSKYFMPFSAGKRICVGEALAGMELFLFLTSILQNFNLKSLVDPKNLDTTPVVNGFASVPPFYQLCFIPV
Protocol: as §1, §2, §3, §4, §5, §6, §7, §8, §9, §10, §11, §12, §13, §14, §15

[6] = molecular target: T2, CYP1A2 (Homo sapiens, UniProt P05177); assay: as above
T2 sequence (P05177 1-516): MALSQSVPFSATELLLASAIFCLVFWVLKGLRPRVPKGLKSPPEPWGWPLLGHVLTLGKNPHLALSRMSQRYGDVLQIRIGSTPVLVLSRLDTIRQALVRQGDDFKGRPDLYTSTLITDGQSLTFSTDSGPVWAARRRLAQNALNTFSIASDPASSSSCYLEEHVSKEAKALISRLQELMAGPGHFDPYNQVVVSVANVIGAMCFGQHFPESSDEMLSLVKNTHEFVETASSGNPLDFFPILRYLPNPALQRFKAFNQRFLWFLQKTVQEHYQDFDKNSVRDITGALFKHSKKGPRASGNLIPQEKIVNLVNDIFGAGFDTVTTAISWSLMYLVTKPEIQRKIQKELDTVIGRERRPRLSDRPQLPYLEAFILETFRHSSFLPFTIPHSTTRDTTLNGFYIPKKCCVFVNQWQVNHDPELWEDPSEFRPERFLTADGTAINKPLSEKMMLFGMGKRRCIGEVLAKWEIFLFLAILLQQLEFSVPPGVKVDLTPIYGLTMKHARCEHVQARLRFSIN
Protocol: as §1, §2, §3, §4, §5, §6, §7, §8, §9, §10, §11, §12, §13, §14, §15

[7] = molecular target: CYP3A4 (Homo sapiens, UniProt P08684); assay: as above
Sequence of CYP3A4 (P08684 2-503): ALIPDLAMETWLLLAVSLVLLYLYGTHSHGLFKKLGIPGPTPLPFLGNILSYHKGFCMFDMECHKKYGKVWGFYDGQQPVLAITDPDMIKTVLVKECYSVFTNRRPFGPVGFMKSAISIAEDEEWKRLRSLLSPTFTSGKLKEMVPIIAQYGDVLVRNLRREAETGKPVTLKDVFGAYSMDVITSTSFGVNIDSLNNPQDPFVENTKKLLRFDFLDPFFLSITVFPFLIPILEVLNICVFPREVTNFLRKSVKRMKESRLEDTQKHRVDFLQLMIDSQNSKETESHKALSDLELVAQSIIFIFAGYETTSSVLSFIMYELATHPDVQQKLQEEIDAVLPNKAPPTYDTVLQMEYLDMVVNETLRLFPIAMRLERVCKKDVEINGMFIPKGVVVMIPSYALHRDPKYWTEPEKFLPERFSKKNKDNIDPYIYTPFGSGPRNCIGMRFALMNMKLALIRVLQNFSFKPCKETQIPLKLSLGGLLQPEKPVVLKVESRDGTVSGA
Protocol: as §1, §2, §3, §4, §5, §6, §7, §8, §9, §10, §11, §12, §13, §14, §15

[8] = molecular target: CYP2D6 (Homo sapiens, UniProt P10635); assay: as above
Sequence of CYP2D6 (P10635 whole entry): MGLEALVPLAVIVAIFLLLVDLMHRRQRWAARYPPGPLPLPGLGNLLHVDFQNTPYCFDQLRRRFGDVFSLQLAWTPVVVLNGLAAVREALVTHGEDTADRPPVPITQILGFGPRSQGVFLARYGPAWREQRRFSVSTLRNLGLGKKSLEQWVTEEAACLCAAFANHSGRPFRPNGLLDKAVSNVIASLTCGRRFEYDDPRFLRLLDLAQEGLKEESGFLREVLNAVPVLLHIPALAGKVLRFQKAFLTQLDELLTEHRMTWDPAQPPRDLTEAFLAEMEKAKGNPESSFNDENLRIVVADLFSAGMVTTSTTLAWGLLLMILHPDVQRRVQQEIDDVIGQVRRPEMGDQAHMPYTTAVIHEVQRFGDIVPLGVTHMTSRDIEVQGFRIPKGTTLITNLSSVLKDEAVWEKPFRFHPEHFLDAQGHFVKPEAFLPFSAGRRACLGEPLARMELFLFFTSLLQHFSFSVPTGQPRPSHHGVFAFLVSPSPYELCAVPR
Protocol: as §1, §2, §3, §4, §5, §6, §7, §8, §9, §10, §11, §12, §13, §14, §15

[9] = agonistic effect, CHO cells stably expressing hKCNQ2/3, FLIPR thallium flux, read-out: EC50

Cc1nc(Nc2ccc3c(C)c(NC(=O)CC4(C)CC4)n(C)c3c2)ccc1F [Compound 36]
half-life ([1]; dose IV:1, PO:5 mg/kg): 1.7 h | AUC(0-t) ([1]; dose IV:1, PO:5 mg/kg): 29.5 µM·h | bioavailability ([1]; dose IV:1, PO:5 mg/kg): 92.7% | clearance ([1]; dose IV:1, PO:5 mg/kg): 6.9 mL/min/kg | Cmax ([1]; dose IV:1, PO:5 mg/kg): 4750 nM | Vd ([1]; dose IV:1, PO:5 mg/kg): 0.8 L/kg | Seizure incidence (%) [2]: 0% | EC50 [3]: 220 nM

CC(C)(C)CC(=O)Nc1nc2c(F)cc(Nc3ccc(F)cc3)cc2n1C1CCC1 [Compound 4]
half-life ([1]; dose IV:0.5, PO:2 mg/kg): 1.2 h | AUC(0-t) ([1]; dose IV:0.5, PO:2 mg/kg): 2.98 µM·h | bioavailability ([1]; dose IV:0.5, PO:2 mg/kg): 64.2% | clearance ([1]; dose IV:0.5, PO:2 mg/kg): 17.9 mL/min/kg | Cmax ([1]; dose IV:0.5, PO:2 mg/kg): 548 nM | Vd ([1]; dose IV:0.5, PO:2 mg/kg): 2.14 L/kg

Cc1c(NC(=O)CC2(C)CC2)n(C)c2cc(Nc3ccc(F)cc3)ccc12 [Compound 12]
IC50 [4]: 13000 nM | IC50 [5]: 11000 nM | IC50 [6]: 20000 nM | IC50 [7]: 37000 nM | IC50 [8]: 15000 nM | EC50 [3]: 800 nM

Cc1c(NC(=O)CC2(C)CC2)n(C)c2cc(Nc3ncc(F)cc3F)ccc12 [Compound 35]
IC50 [4]: > 50000 nM | IC50 [5]: > 50000 nM | IC50 [6]: > 50000 nM | IC50 [7]: > 50000 nM | IC50 [8]: > 50000 nM | EC50 [3]: 490 nM

Cc1c(NC(=O)CC(C)(C)C)n(C)c2cc(Nc3ccc(F)cn3)ccc12 [Compound 11]
half-life ([1]; dose IV:0.5, PO:2 mg/kg): 0.7 h | AUC(0-t) ([1]; dose IV:0.5, PO:2 mg/kg): 1.11 µM·h | bioavailability ([1]; dose IV:0.5, PO:2 mg/kg): 62.2% | clearance ([1]; dose IV:0.5, PO:2 mg/kg): 50.3 mL/min/kg | Cmax ([1]; dose IV:0.5, PO:2 mg/kg): 524 nM | Vd ([1]; dose IV:0.5, PO:2 mg/kg): 2 L/kg | EC50 [3]: 200 nM

Cc1c(NC(=O)C2CCCC2)n(C)c2cc(Nc3ccc(F)cn3)ccc12 [Compound 21]
EC50 [3, 9]: 220 nM

Cc1c(NC(=O)CC(C)(C)C)n(C)c2cc(Nc3ccc(Cl)cn3)ccc12 [Compound 30]
EC50 [3, 9]: 210 nM

CCC(=O)Nc1c(C)c2ccc(Nc3ccc(F)cc3)cc2n1C [Compound 16]
EC50 [3, 9]: 700 nM

Cc1c(NC(=O)CC(C)(C)C)n(C)c2cc(Nc3ncc(F)cn3)ccc12 [Compound 38]
EC50 [3, 9]: 820 nM

Cc1c(NC(=O)CC2(C)CC2)n(C)c2cc(Nc3ccc(F)cn3)ccc12 [Compound 28]
EC50 [3, 9]: 560 nM

Cc1c(NC(=O)C2CC2)n(C)c2cc(Nc3ccc(F)cc3)ccc12 [Compound 13]
EC50 [3, 9]: 500 nM

Cc1c(NC(=O)C2CCC2)n(C)c2cc(Nc3ccc(F)cn3)ccc12 [Compound 22]
EC50 [3, 9]: 430 nM

Cc1ccc(Nc2ccc3c(C)c(NC(=O)CC(C)(C)C)n(C)c3c2)nc1 [Compound 29]
EC50 [3, 9]: 410 nM
